The subject of series [1] is uterine muscle strips from pregnant WT mice stimulated with oxytocin. Description: myography of mouse uterine muscle strips, oxytocin dose response. The note with it: D18 strips. As to the method:
(§1) Uterine muscle strips were extracted from pregnant mice and were assessed for contractibility via myography. Timed-pregnant wild-type C57/B6 mice were euthanized before making a vertical midline abdominal incision and removing each of the two uterine horns. Uterine horns were subsequently cut into 3-mm×7-mm segments and placed in a modified Krebs buffer (118 mM NaCl, […], 1.2 mM MgSO4, 1.2 mM KH2PO4, 2.5 mM CaCl2), 25 mM NaHCO3, and 11 mM glucose, pH 7.4). Muscle segments were vertically suspended on custom-made stainless steel hooks inside an organ bath filled with modified Krebs buffer, maintained at 37° C., and aerated with gas containing 95% O2 and 5% CO2. The strips were allowed to equilibrate at 1.5 g of tension for 45 min.
For the oxytocin dose-response experiments, the strips were then stimulated with oxytocin at concentrations ranging from 1 to 1000 nM, and the pattern of contraction in response to each dose was recorded for 9 min. The muscle strips were washed with Krebs solution twice and allowed to equilibrate for 3 min before the next stimulation. In separate experiments, strips were treated with the compounds before assessing the dose response to oxytocin. Contraction tracings were recorded using PowerLab and LabChart (ADInstruments).
Provided in FIGS. 5B and 5C are results of a myography experiment measuring spontaneous contractions induced by oxytocin. […]

Series [2] relates to pregnant C57BL/6 mice. Nature of the series: gestation period in healthy control mice (no LPS). Type of series: in vivo. The note with it: 1.5 mg/mouse intraperitoneal every 24 hours. As to the method: (§2) Provided in FIGS. 8A and 8B are an experimental schematic and results of tocolytic compound treatment in mouse models of severe preterm birth. In separate experiments, pregnant C57BL/6 mice were intraperitoneally administered 3 mg/kg LPS (Escherichia coli 0127: B8, chromatographically pure, Sigma-Aldrich) or PBS (as control) on D15. Treated mice were then treated with either intraperitoneal injections of vehicle or androstane-3,17-diol (1.5 mg/mouse). The androstane-3,17-diol group received androstane-3,17-diol via intraperitoneal injections every 24 hours, up to 3 days before delivery. One-third (33%) of LPS-induced preterm mice treated with androstane-3,17-diol reached full term.

In series [3] the test system is human uterine smooth muscle cells. Description: collagen gel contraction assay with human uterine smooth muscle cells. The note with it: compound at 10 μM; oxytocin 100 nM, 18 hours. Type of series: cell-based. Here is the method:
The abilities of various hormonal steroids to inhibit human uterine smooth muscle cell contraction were assessed utilizing a collagen gel contraction assay. Collagen (150 μl) was aliquoted per well of a 48-well plate. After 1 hour of polymerization, 80,000 human uterine smooth muscle cells (SMCs), were added to each well in 300 μl of SmBM smooth muscle basic medium (Lonza) with vehicle (DMSO) or compounds (2.5 µM of DHEA-S, 10 µM of THDOC, 10 µM of estriol-16-glucuronide, 10 µM of androstane-3,17-diol, or 2 mM of progesterone). Collagen gels were exposed to oxytocin (100 nM) to stimulate uterine SMC contraction or PBS as control. After incubating for 1 hour at 37° C. and 5% CO2, the sides of the collagen gels were detached from the wells with sterile 200-μl pipette tips. After 18 hours, cells in collagen-coated wells were fixed with 4% paraformaldehyde solution for 30 min, then rinsed, and stored in PBS. Experiments were done multiple times (n=7), with duplicates for each condition. Surface area of each gel circle was measured using ImageJ. The areas were then expressed as a percentage relative to the area of no cell (collagen alone) control (set at 100%).
Each of the compounds assessed provided some ability to mitigate collagen retraction. […]

Series [4] deals with pregnant C57BL/6 mice. Nature of the series: mouse model of moderate preterm birth (LPS 2 mg/kg). Type of series: in vivo. The conditions noted are these: LPS 2 mg/kg D15; for gestation after LPS: intraperitoneal every 8 hours, DHEA-S, THDOC 0.8 then 0.4 mg/mouse, androstane-3,17-diol 1.5 mg/mouse, combinations 0.75 mg/mouse each. As to the method:
Provided in FIGS. 6A and 6B are an experimental schematic and results of compound treatment in mouse models of moderate preterm birth. Pregnant C57BL/6 mice were intraperitoneally administered 2 mg/kg LPS (Escherichia coli 0127:B8, chromatographically pure, Sigma-Aldrich) or PBS (as control) on D15. Mice were then treated with either intraperitoneal injections of vehicle (100 μl, 30% DMSO in pharmaceutical sesame oil), DHEA-S (first two doses at 0.8 mg/mouse, later doses at 0.4 mg/mouse, 100 μl), THDOC (first two doses at 0.8 mg/mouse, later doses at 0.4 mg/mouse, 100 μl), estriol-16-glucuronide (first two doses at 0.8 mg/mouse, later doses at 0.4 mg/mouse, 100 μl), androstane-3,17-diol (1.5 mg/mouse, 100 μl), Androstane-3,17-diol+progesterone (each at 0.75 mg/mouse, 100 μl), or DHEA-S+androstane-3,17-diol+progesterone (androstane-3,17-diol and progesterone each at 0.75 mg/mouse, DHEA-S at 0.27 mg/mouse for the first two doses and then 0.13 mg/mouse for the later does, 100 μl). Compound groups received the compounds via intraperitoneal injections every 8 hours, beginning 8 hours after LPS administration, up to 4 doses, and then after 12 hours before delivery.

The subject of series [5] is pregnant C57BL/6 mice. Nature of the series: mouse model of severe preterm birth (LPS 3 mg/kg). Type of series: in vivo. As to the method:
Provided in FIG. 7 is an experimental schematic of compound treatment in mouse models of severe preterm birth. In separate experiments, pregnant C57BL/6 mice were intraperitoneally administered 3 mg/kg LPS (Escherichia coli 0127: B8, chromatographically pure, Sigma-Aldrich) or PBS (as control) on D15. Treated mice were then treated with either intraperitoneal injections of vehicle (200 μl) or androstane-3,17-diol (1.5 mg/mouse, 200 μl) every 12 hours, up to 5 doses before delivery.
as §2

In series [6] the test system is uterine muscle strips from pregnant WT mice. Description: myography of mouse uterine muscle strips, spontaneous contraction. As to the method:
as §1
Provided in FIG. 5A are results of a myography experiment measuring spontaneous contraction. Myography of uterine muscle strips from pregnant WT mice at D18 was performed while incubating the strips with oxytocin (OXY), Vehicle, 0.25 μM μM of DHEA-S, 1 μM of THDOC, 1 μM of estriol-16-glucuronide, or 1 μM of androstane-3,17-diol. The area under the curve was calculated for the final 180 s of each 9-min contraction tracing using GraphPad Prism (GraphPad Prism for Macintosh version 5.0; GraphPad Software). The area under the curve for each response was then normalized to the area under the curve of the baseline.
Provided in FIG. 5E are myography tracings recorded with various compound applications: 10 μM progesterone, 1 μM Androstane-3,17-diol, 0.5 μM Androstane-3,17-diol+5 μM progesterone, and 0.33 μM Androstane-3,17-diol+0.33 μM THDOC+3.3 μM progesterone. Left of the arrow is baseline contraction and to the right of the arrow indicates when the compounds were applied. […] Note that there was no obvious effect when treating the muscle with 1 μM progesterone (data not shown).

Series [7] relates to pregnant CD1 mice. Description: mouse model of preterm birth (CD1, LPS 1 mg/kg). It is filed as in vivo. The note with it: LPS 1 mg/kg D15, subcutaneous; for pups birthed from treated preterm model females: 4 doses; for gestation after LPS: 4 doses at 30 mg/kg (5α-DHT 3 mg/kg). Here is the method:
Provided in FIGS. 9 and 9B are an experimental schematic and results of compound treatment in mouse models of preterm birth. Pregnant CD1 mice were intraperitoneally administered 1 mg/kg LPS (Escherichia coli 0127: B8, chromatographically pure, Sigma-Aldrich) or PBS (as control) on D15. Mice were then treated with either subcutaneous injections of vehicle (DMSO in pharmaceutical sesame oil), pregnenolone (Preg) (4 doses at 30 mg/kg), pregnenolone sulfate (PregS) (4 doses at 30 mg/kg), 7-methylguanine (4 doses at 30 mg/kg), or 5α-dihydrotestosterone (5α-DHT) (4 doses at 3 mg/kg). Compound groups received the compounds beginning 6 hours after LPS administration, then 6, 12, and 12 hours apart.

“Also recorded” adds a separate entry of the source. Structures can show the parent of a compound that is named as a salt.

`C[C@]12CC[C@@H](O)C[C@@H]1CC[C@@H]1[C@@H]2CC[C@]2(C)[C@@H](O)CC[C@@H]12` (stereo in doubt) [androstane-3,17-diol]: the “uterine contractility with oxytocin stimulation (AUC, amplitude)” value in series [1] (1 μM compound, increasing doses of oxytocin) is on record as “reduced; also recorded: inhibits uterine muscle contraction”. Besides, the “gestation period of healthy control mice” value in series [2] is recorded as “increased gestation period beyond the typical date of delivery”. In series [3], the “ability to mitigate collagen retraction” value is “best results”. Further, in series [4] (intraperitoneal), the “pups birthed from treated preterm model females” value (“pups birthed” below) was “Full-term live pups” and the “rank of gestation result among treatments” value was “most significant results”. Also, in series [4], the “gestation after LPS” value is “prolonged gestation in vivo”. In addition, the “condition of mom and pups at full-term” value in series [5] (1.5 mg/mouse intraperitoneal every 12 hours) is “looked healthy”. The “fraction of mice that reached full-term” value in series [5] (1.5 mg/mouse intraperitoneal every 12 hours, up to 5 doses) is reported as “⅓”. For the same compound, the “LPS-induced preterm mice that reached full term” value in series [5] (1.5 mg/mouse intraperitoneal every 24 hours, up to 3 days) came out at 33%. The “muscle contractility, myography tracing” value in series [6] (1 μM) is “rapid inhibition of the muscle contraction”. For the same compound, the “suppression of uterine contractility (area under the curve normalized to baseline)” value in series [6] (D18 strips, 0.25 μM DHEA-S, 1 μM THDOC, estriol-16-glucuronide or androstane-3,17-diol) is reported as “most significant inhibition effect”.

With `C[C@]12CCC(=O)C[C@@H]1CC[C@@H]1[C@@H]2CC[C@]2(C)[C@@H](O)CC[C@@H]12` [5α-DHT, 5α-dihydrotestosterone], in series [7], the “pups birthed” value is “Full-term live pups” and the “gestation after LPS” value is “prolonged gestation in vivo”.

On to `Cn1cnc2nc(N)[nH]c(=O)c21` [7-methylguanine], for which, in series [7], the “pups birthed” value is on record as “Full-term live pups” and the “gestation after LPS” value is recorded as “prolonged gestation in vivo”.

On to `C[C@]12CC[C@H](OS(=O)(=O)O)CC1=CC[C@@H]1[C@@H]2CC[C@]2(C)C(=O)CC[C@@H]12` [DHEA-S, dehydroisoandrosterone sulfate], for which the “pups birthed” value in series [4] (intraperitoneal) is listed as “Full-term live pups”. In series [4], the “gestation after LPS” value is “prolonged gestation in vivo”.

As for `CC[C@H](C)[C@@H]1NC(=O)[C@H](Cc2ccc(O)cc2)NC(=O)[C@@H](N)CSSC[C@@H](C(=O)N2CCC[C@H]2C(=O)N[C@@H](CC(C)C)C(=O)NCC(N)=O)NC(=O)[C@H](CC(N)=O)NC(=O)[C@H](CCC(N)=O)NC1=O` [Oxytocin, oxytocin, reference compound], the “effect of oxytocin on uterine contractility” value in series [1] (1 to 1000 nM oxytocin) is given as “dose-dependent increase in uterine contractility”.

`C[C@]12CC[C@@H](O)C[C@H]1CC[C@@H]1[C@@H]2CC[C@]2(C)[C@@H](C(=O)CO)CC[C@@H]12` [THDOC, tetrahydrodeoxycorticosterone]: the “gestation after LPS” value in series [4] is reported as “prolonged gestation in vivo”.

Regarding `CC(=O)[C@H]1CC[C@H]2[C@@H]3CC=C4C[C@@H](OS(=O)(=O)O)CC[C@]4(C)[C@H]3CC[C@]12C` [pregnenolone sulfate], in series [7], the “pups birthed” value is reported as “Full-term live pups” and the “gestation after LPS” value was “prolonged gestation in vivo”. Besides, the “rank of gestation result among treatments” value in series [7] (4 doses at 30 mg/kg) is “most significant results, matching the untreated control”.

For the compound `CC(=O)[C@H]1CC[C@H]2[C@@H]3CC=C4C[C@@H](O)CC[C@]4(C)[C@H]3CC[C@]12C` [pregnenolone], the “gestation after LPS” value in series [7] is reported as “prolonged gestation in vivo”.

With `CC(=O)[C@H]1CC[C@H]2[C@@H]3CCC4=CC(=O)CC[C@]4(C)[C@H]3CC[C@]12C` [progesterone, reference compound], the “ability to mitigate collagen retraction” value in series [3] was “no effect”. Further, the “muscle contractility, myography tracing” value in series [6] (1 μM) is “no effects”; in series [6] (10 μM), “first enhanced and then gradually suppressed in peak height”.

The values above are taken from patent publication US20240358719A1, “Formulations for Prolonging Gestation and for Complications of Menstruation or Gestation” (The Board of Trustees of the Leland Stanford Junior …, priority 2021, published 2024).
